Data as given in the NIST ThermoML archive (doi:10.1016/j.jct.2017.03.006).
Numbers after ± are expanded uncertainties.

Legend:
[1] = molar heat capacity at constant pressure; conditions: Liquid, Flow calorimetry
[2] = Liquid; for mass density: Vibrating tube method; for viscosity: Concentric cylinders viscometry

Cc1ccc(C)c(C)c1 [1,2,4-trimethylbenzene]
Conditions	mass density [kg/m3]	molar heat capacity at constant pressure [J/K/mol]	viscosity [mPa·s]
[1], 293.15 K, 100 kPa	–	216.2 ± 3	–
[1], 293.15 K, 5000 kPa	–	215 ± 3	–
[1], 293.15 K, 10000 kPa	–	213.3 ± 3	–
[1], 293.15 K, 15000 kPa	–	212.5 ± 3	–
[1], 293.15 K, 20000 kPa	–	210.8 ± 3	–
[1], 293.15 K, 25000 kPa	–	209.8 ± 3	–
[1], 313.15 K, 100 kPa	–	222.5 ± 3.1	–
[1], 313.15 K, 5000 kPa	–	221.2 ± 3.1	–
[1], 313.15 K, 10000 kPa	–	219.6 ± 3.1	–
[1], 313.15 K, 15000 kPa	–	218.5 ± 3.1	–
[1], 313.15 K, 20000 kPa	–	217.7 ± 3.1	–
[1], 313.15 K, 25000 kPa	–	217.1 ± 3.1	–
[1], 333.15 K, 100 kPa	–	229.2 ± 3.2	–
[1], 333.15 K, 5000 kPa	–	227.9 ± 3.2	–
[1], 333.15 K, 10000 kPa	–	227.1 ± 3.2	–
[1], 333.15 K, 15000 kPa	–	225.9 ± 3.2	–
[1], 333.15 K, 20000 kPa	–	224.8 ± 3.2	–
[1], 333.15 K, 25000 kPa	–	223.5 ± 3.1	–
[2], 273.15 K, 100 kPa	891.7 ± 0.7	–	–
[2], 273.15 K, 1000 kPa	892.3 ± 0.7	–	–
[2], 273.15 K, 2000 kPa	892.9 ± 0.7	–	–
[2], 273.15 K, 5000 kPa	894.6 ± 0.7	–	–
[2], 273.15 K, 10000 kPa	897.4 ± 0.7	–	–
[2], 273.15 K, 15000 kPa	900.2 ± 0.7	–	–
[2], 273.15 K, 20000 kPa	902.8 ± 0.7	–	–
[2], 273.15 K, 30000 kPa	908 ± 0.7	–	–
[2], 273.15 K, 40000 kPa	912.9 ± 0.7	–	–
[2], 273.15 K, 50000 kPa	917.5 ± 0.7	–	–
[2], 273.15 K, 60000 kPa	921.9 ± 0.7	–	–
[2], 273.15 K, 70000 kPa	926.2 ± 0.7	–	–
[2], 273.15 K, 80000 kPa	930.3 ± 0.8	–	–
[2], 273.15 K, 90000 kPa	934.2 ± 0.8	–	–
[2], 273.15 K, 100000 kPa	938 ± 0.8	–	–
[2], 273.15 K, 110000 kPa	941.7 ± 0.8	–	–
[2], 273.15 K, 120000 kPa	945.2 ± 0.8	–	–
[2], 273.15 K, 130000 kPa	948.6 ± 0.8	–	–
[2], 273.15 K, 140000 kPa	952 ± 0.8	–	–
[2], 283.15 K, 100 kPa	883.3 ± 0.7	–	–
[2], 283.15 K, 1000 kPa	883.9 ± 0.7	–	–
[2], 283.15 K, 2000 kPa	884.5 ± 0.7	–	–
[2], 283.15 K, 5000 kPa	886.3 ± 0.7	–	–
[2], 283.15 K, 10000 kPa	889.3 ± 0.7	–	–
[2], 283.15 K, 15000 kPa	892.2 ± 0.7	–	–
[2], 283.15 K, 20000 kPa	895 ± 0.7	–	–
[2], 283.15 K, 30000 kPa	900.3 ± 0.7	–	–
[2], 283.15 K, 40000 kPa	905.4 ± 0.7	–	–
[2], 283.15 K, 50000 kPa	910.2 ± 0.7	–	–
[2], 283.15 K, 60000 kPa	914.8 ± 0.7	–	–
[2], 283.15 K, 70000 kPa	919.3 ± 0.8	–	–
[2], 283.15 K, 80000 kPa	923.5 ± 0.8	–	–
[2], 283.15 K, 90000 kPa	927.5 ± 0.8	–	–
[2], 283.15 K, 100000 kPa	931.4 ± 0.8	–	–
[2], 283.15 K, 110000 kPa	935.2 ± 0.8	–	–
[2], 283.15 K, 120000 kPa	938.9 ± 0.8	–	–
[2], 283.15 K, 130000 kPa	942.4 ± 0.8	–	–
[2], 283.15 K, 140000 kPa	945.8 ± 0.8	–	–
[2], 293.15 K, 100 kPa	875.1 ± 0.7	–	0.888 ± 0.019
[2], 293.15 K, 1000 kPa	875.7 ± 0.7	–	–
[2], 293.15 K, 2000 kPa	876.3 ± 0.7	–	–
[2], 293.15 K, 5000 kPa	878.2 ± 0.7	–	–
[2], 293.15 K, 10000 kPa	881.4 ± 0.7	–	–
[2], 293.15 K, 15000 kPa	884.4 ± 0.7	–	–
[2], 293.15 K, 20000 kPa	887.3 ± 0.7	–	–
[2], 293.15 K, 30000 kPa	892.9 ± 0.7	–	–
[2], 293.15 K, 40000 kPa	898.2 ± 0.7	–	–
[2], 293.15 K, 50000 kPa	903.2 ± 0.7	–	–
[2], 293.15 K, 60000 kPa	908 ± 0.8	–	–
[2], 293.15 K, 70000 kPa	912.6 ± 0.8	–	–
[2], 293.15 K, 80000 kPa	916.9 ± 0.8	–	–
[2], 293.15 K, 90000 kPa	921.1 ± 0.8	–	–
[2], 293.15 K, 100000 kPa	925.1 ± 0.8	–	–
[2], 293.15 K, 110000 kPa	929 ± 0.8	–	–
[2], 293.15 K, 120000 kPa	932.8 ± 0.8	–	–
[2], 293.15 K, 130000 kPa	936.4 ± 0.8	–	–
[2], 293.15 K, 140000 kPa	939.9 ± 0.8	–	–
[2], 303.15 K, 100 kPa	867 ± 0.7	–	0.779 ± 0.017
[2], 303.15 K, 1000 kPa	867.6 ± 0.7	–	–
[2], 303.15 K, 2000 kPa	868.3 ± 0.7	–	–
[2], 303.15 K, 5000 kPa	870.3 ± 0.7	–	–
[2], 303.15 K, 10000 kPa	873.6 ± 0.7	–	–
[2], 303.15 K, 15000 kPa	876.8 ± 0.7	–	–
[2], 303.15 K, 20000 kPa	879.8 ± 0.7	–	–
[2], 303.15 K, 30000 kPa	885.7 ± 0.7	–	–
[2], 303.15 K, 40000 kPa	891.2 ± 0.7	–	–
[2], 303.15 K, 50000 kPa	896.4 ± 0.7	–	–
[2], 303.15 K, 60000 kPa	901.4 ± 0.8	–	–
[2], 303.15 K, 70000 kPa	906.1 ± 0.8	–	–
[2], 303.15 K, 80000 kPa	910.6 ± 0.8	–	–
[2], 303.15 K, 90000 kPa	914.9 ± 0.8	–	–
[2], 303.15 K, 100000 kPa	919.1 ± 0.8	–	–
[2], 303.15 K, 110000 kPa	923.1 ± 0.8	–	–
[2], 303.15 K, 120000 kPa	927 ± 0.8	–	–
[2], 303.15 K, 130000 kPa	930.7 ± 0.8	–	–
[2], 303.15 K, 140000 kPa	934.3 ± 0.8	–	–
[2], 313.15 K, 100 kPa	859 ± 0.7	–	0.692 ± 0.015
[2], 313.15 K, 1000 kPa	859.7 ± 0.7	–	–
[2], 313.15 K, 2000 kPa	860.4 ± 0.7	–	–
[2], 313.15 K, 5000 kPa	862.6 ± 0.7	–	–
[2], 313.15 K, 10000 kPa	866 ± 0.7	–	–
[2], 313.15 K, 15000 kPa	869.3 ± 0.7	–	–
[2], 313.15 K, 20000 kPa	872.6 ± 0.7	–	–
[2], 313.15 K, 30000 kPa	878.7 ± 0.7	–	–
[2], 313.15 K, 40000 kPa	884.5 ± 0.7	–	–
[2], 313.15 K, 50000 kPa	889.9 ± 0.8	–	–
[2], 313.15 K, 60000 kPa	895 ± 0.8	–	–
[2], 313.15 K, 70000 kPa	899.9 ± 0.8	–	–
[2], 313.15 K, 80000 kPa	904.6 ± 0.8	–	–
[2], 313.15 K, 90000 kPa	909 ± 0.8	–	–
[2], 313.15 K, 100000 kPa	913.3 ± 0.8	–	–
[2], 313.15 K, 110000 kPa	917.4 ± 0.8	–	–
[2], 313.15 K, 120000 kPa	921.4 ± 0.8	–	–
[2], 313.15 K, 130000 kPa	925.2 ± 0.8	–	–
[2], 313.15 K, 140000 kPa	928.9 ± 0.8	–	–
[2], 323.15 K, 100 kPa	851.3 ± 0.7	–	0.62 ± 0.014
[2], 323.15 K, 1000 kPa	852 ± 0.7	–	–
[2], 323.15 K, 2000 kPa	852.7 ± 0.7	–	–
[2], 323.15 K, 5000 kPa	855 ± 0.7	–	–
[2], 323.15 K, 10000 kPa	858.6 ± 0.7	–	–
[2], 323.15 K, 15000 kPa	862.1 ± 0.7	–	–
[2], 323.15 K, 20000 kPa	865.5 ± 0.7	–	–
[2], 323.15 K, 30000 kPa	871.9 ± 0.7	–	–
[2], 323.15 K, 40000 kPa	877.9 ± 0.7	–	–
[2], 323.15 K, 50000 kPa	883.5 ± 0.8	–	–
[2], 323.15 K, 60000 kPa	888.9 ± 0.8	–	–
[2], 323.15 K, 70000 kPa	894 ± 0.8	–	–
[2], 323.15 K, 80000 kPa	898.8 ± 0.8	–	–
[2], 323.15 K, 90000 kPa	903.4 ± 0.8	–	–
[2], 323.15 K, 100000 kPa	907.8 ± 0.8	–	–
[2], 323.15 K, 110000 kPa	912 ± 0.8	–	–
[2], 323.15 K, 120000 kPa	916.1 ± 0.8	–	–
[2], 323.15 K, 130000 kPa	920 ± 0.8	–	–
[2], 323.15 K, 140000 kPa	923.8 ± 0.8	–	–
[2], 333.15 K, 100 kPa	843.6 ± 0.7	–	0.562 ± 0.012
[2], 333.15 K, 1000 kPa	844.4 ± 0.7	–	–
[2], 333.15 K, 2000 kPa	845.2 ± 0.7	–	–
[2], 333.15 K, 5000 kPa	847.6 ± 0.7	–	–
[2], 333.15 K, 10000 kPa	851.4 ± 0.7	–	–
[2], 333.15 K, 15000 kPa	855.1 ± 0.7	–	–
[2], 333.15 K, 20000 kPa	858.6 ± 0.7	–	–
[2], 333.15 K, 30000 kPa	865.3 ± 0.7	–	–
[2], 333.15 K, 40000 kPa	871.6 ± 0.8	–	–
[2], 333.15 K, 50000 kPa	877.4 ± 0.8	–	–
[2], 333.15 K, 60000 kPa	883 ± 0.8	–	–
[2], 333.15 K, 70000 kPa	888.2 ± 0.8	–	–
[2], 333.15 K, 80000 kPa	893.2 ± 0.8	–	–
[2], 333.15 K, 90000 kPa	898 ± 0.8	–	–
[2], 333.15 K, 100000 kPa	902.5 ± 0.8	–	–
[2], 333.15 K, 110000 kPa	906.9 ± 0.8	–	–
[2], 333.15 K, 120000 kPa	911.1 ± 0.8	–	–
[2], 333.15 K, 130000 kPa	915.1 ± 0.8	–	–
[2], 333.15 K, 140000 kPa	919 ± 0.8	–	–
